row,Compound,melting point [°C]
1,COC(=O)C(C(C)C)N(C)S(=O)(=O)c1ccc(-c2ccc(NC(=O)c3cc4ccccc4o3)cc2)cc1 (configuration not stated),67 to 69
2,CCn1c(=O)c2[nH]c(/C=C/c3cccc(F)c3C)nc2n(CC)c1=O,> 270
3,CCOc1ccc(-n2nc(Sc3ccc(Cl)cc3)c(C)c(C#N)c2=O)cc1,138 to 145
4,C=Cc1ccc(OCc2ccccc2)cc1OCC(=O)c1ccc(OC)cc1,93 to 94
5,CCOC(=O)C(=O)c1cn(Cc2ccc(C(C)(C)C)cc2)c2cc(-c3ccc(OC(F)(F)F)cc3)ccc12,146 to 147
6,CCOc1cc2cc(CO)c(CO)c(-c3ccnc(Br)c3)c2cc1OC,156 to 157
7,NC(CC1CCCCC1)C(O)C(O)C1CC1 (configuration not stated),141 to 142
8,O=C(O)Cc1cc(=O)n(Cc2ccc(Cl)cc2)c2ccc([N+](=O)[O-])cc12,217 to 219
9,CC(C)OCCOc1ccc(-c2nc(C(=O)Nc3nccs3)c(-c3ccc(Cl)cc3)[nH]2)cc1,121 to 125
10,CC(Cc1ccc(O)cn1)NC1CC1 (configuration not stated),161
11,O=C(O)Cn1ccn(C2CCc3ccccc3C2)c1=S (configuration not stated),228 to 230
12,CC1COCc2nc3c(N)nc4ccc(OCCN5CCOCC5)cc4c3n21 (configuration not stated),186 to 188
13,CCC(=O)C(CCCCCCOc1ccc(OC)cc1)C(=O)CC,50 to 51
14,COc1ccccc1-c1cccc(C#N)c1,58
15,CCCSc1nc(-c2ccc(Cl)cc2)c(CCC(=O)O)o1,128 to 129
16,CCCCCCCCCCCC12OC(C)CN1CC(C)O2 (configuration not stated),> 130
17,O=c1ccc(Br)cn1CC1(O)CCN(Cc2ccccc2F)CC1,184 to 186
18,CS(=O)(=O)c1ccc(-c2cc(C(F)(F)F)nn2-c2ccc(F)cc2)cc1F,228 to 229
19,Cn1ncc(-c2ccc(OCCCCl)cc2)cc1=O,90 to 91
20,Nc1nc(Cl)c2c(n1)CCCS2,196 to 198
21,O=C1N(Cc2ccc3nonc3c2)c2ccccc2C12COc1cc3c(cc12)CCO3 (configuration not stated),169 to 171
22,CCCCCCCCc1cc2c(s1)NC(=O)CN=C2c1ccccc1OC,128 to 130
23,CCCCCCCCCCOc1csc(-c2ccc(N)cc2)c1OCCCCCCCCCC,64.5 to 65.5
24,CC(C)(C)CC(C)(C)c1cc(Cc2cc(C(C)(C)C)cc(C(C)(C)C)c2O)c(O)c(-n2nc3ccccc3n2)c1,137
25,CC(C)(OCc1cc2cc(C(F)(F)F)ccc2n1S(=O)(=O)c1ccc2c(c1)CCO2)C(=O)O,92 to 94
26,Cn1cc(-c2cc3nccnc3[nH]2)c2cc(OC3(CO)CCC3)ccc21,267 to 271

row,Compound,melting point [°C]
1,CCOC(=O)c1cc(N=Cc2ccccc2)ccc1OC(C)=O,79 to 80
2,N#CSc1c(C(F)(F)F)nn(-c2c(Cl)cc(C(F)(F)F)cc2Cl)c1N,49 to 50
3,CC(C)(C)C(NC(=O)c1ccc(Cl)cc1)NC(=NC#N)NCc1ccccc1Cl (configuration not stated),180 to 182
4,CNc1cc(NS(=O)(=O)c2ccc(Cl)cc2)nc(NC)n1,272 to 273
5,C=CCN(CC=C)C(=O)n1cnc(S(=O)C(C)C)n1 (configuration not stated),32 to 34
6,COC(=O)c1cc(F)c(F)c2ccc(C)nc12,99 to 101
7,Nc1cccc(S(=O)(=O)NC2(CO)CCCC2)c1,130 to 132
8,COc1cc(OC(=O)c2ccc(OC)c(C34CC5CC(CC(C5)C3)C4)c2)ccc1C(=O)O,199 to 200
9,CCc1ccc(OC(C)(C)C(=O)O)cc1OCCCc1cn(-c2ccc(C(F)(F)F)cn2)nc1C(C)C,115 to 116
10,CCCc1c2c(c([N+](=O)[O-])c3c(=O)cc(C(=O)OCC)oc13)CC(C(=O)OCC)CC2 (configuration not stated),164 to 166
11,COc1ccnc(C(=O)N[C@H]2COC[C@H](OCc3ccccc3)[C@@H](OCc3ccccc3)[C@H](C)OC2=O)c1O,144 to 146
12,CS(=O)(=O)N(Cc1ccccn1)CC(O)(Cn1cncn1)c1ccc(Cl)cc1Cl (configuration not stated),154 to 156
13,CCN(C(=O)CCCCc1nnnn1C1CCCCC1)C1CCCCC1,92 to 95
14,CCCCCCCCCCCCCCOc1ccccc1CO,33 to 34
15,CN1CC(O)N(c2nnc(SCc3cccs3)s2)C1=O (configuration not stated),129 to 132
16,COC(=O)c1scc(-c2ccccc2)c1N,64 to 66
17,Cc1noc(NS(=O)(=O)c2ccc(Cc3ccccc3)s2)c1Br,49 to 50
18,CCCSc1nccn2c(=O)c(C(=O)OCC)cnc12,112
19,Nc1ccc(S(=O)(=O)Nc2ccn(CC3CC3)c(=O)n2)cc1,87 to 95
20,CCOC(=O)CCCCCCC(=O)c1ccc2cc(OC)ccc2c1,77 to 78
21,COc1cc2nc(N3CCN(c4nc5ccccc5o4)CC3)nc(N)c2cc1OC,> 250
22,CCOC(=O)Cn1c(C(=O)NCc2nnc3n2-c2sc(CC)cc2C(c2ccccc2Cl)=NC3)cc2ccccc21,215 to 217
23,Cc1nn(CC(F)(F)F)c(C(=O)O)c1[N+](=O)[O-],135 to 138
24,CC=CCn1c(C)c(C)c2cnnc(CCc3ccc(F)cc3F)c21,114 to 118
25,Cc1cc(CC(=O)O)n(C)c1C(=O)c1ccc(F)cc1,176 to 178
26,CC(C)Sc1sc(-c2nnn[nH]2)c2c1C(=O)CC(C)(C)C2,228 to 230

row,Compound,melting point [°C]
1,NC(=O)N(O)CCNC(=O)CCc1ccccc1,165 to 167
2,CN1C(=O)c2cc(Nc3ccccc3)c(Nc3ccccc3)cc2C1=O,195 to 196
3,CN1C(=O)CC[C@H]1COc1cccnc1,73 to 74
4,CCN(CC)C(C)(C)CNC1(c2ccccc2Cl)C(=O)Nc2ccc(Cl)cc21 (configuration not stated),174
5,CC(C)(C)OC(=O)c1ncn2c1[C@@H]1CCN1C(=O)c1c(Cl)cccc1-2,235 to 236
6,COc1cc(NCCCN(C)Cc2ccccc2)ccc1C(N)=O,116 to 118
7,NS(=O)(=O)Cc1cccc(NC(=O)c2cnn3c(C(F)(F)F)cc(-c4ccc(C(F)(F)F)cc4)nc23)c1,298
8,Oc1ccc(CN[C@H]2CC[C@@H](C(c3ccccc3)c3ccccc3)OC2)cc1 (relative stereo),136 to 138
9,CCCS(=O)(=O)NCc1ccc2ccn(C3CCN(CCc4ccc(F)cc4)CC3)c2c1,80 to 81
10,CCN(C(=O)OC)c1cccc(-c2ccc3nnc(C)n3n2)c1,176 to 178
11,Cc1ccc2c(O)ccnc2c1,233 to 235
12,Cc1ccc2ncc3nc(C(F)(F)F)n(C)c3c2c1,220 to 223
13,O=C(O)c1ccc(NC(=O)N(Cc2ccccc2)Cc2ccccc2)cc1,210 to 214
14,CCOC(=O)C1CCN(c2cc(-c3ccc(Cl)cc3)nc3ccccc23)CC1,124 to 126
15,Cc1ccc(-c2c(-c3ccc(S(C)(=O)=O)cc3)[nH]c3ccccc23)cc1C,206 to 207
16,CNC1=NN(C(=O)c2ccccc2F)C(C)(C)S1,136 to 140
17,N#CN1CCNC(c2ccccc2)c2ccccc2C1 (configuration not stated),134 to 135
18,CN(C)CC(=O)Nc1cccc2c1C(=O)c1c(NC(=O)CN(C)C)cccc1C2=O,194 to 195
19,CCC(=O)OC1(c2ccccc2)CCN(CCN2CNC(=O)c3ccccc32)CC1,141 to 144
20,CS(=O)(=O)N(Cc1ccc(Cl)cc1)CC(O)(Cn1cncn1)c1ccc(Cl)cc1Cl (configuration not stated),121 to 122
21,OC(c1cccc(Oc2ccccc2)n1)C(F)(F)F (configuration not stated),51.5 to 53.5
22,C=Cc1cc2cc(OC)ccc2n1C,87 to 89
23,Cc1cc(C)c2c(c1C)OCC2c1ccc(Br)cc1 (configuration not stated),72 to 73
24,COCCOc1ccc(C=NOC)cc1O,63 to 64
25,COc1cc(OCCOCc2ccccc2)cc2nc(-c3ccncc3)[nH]c(=O)c12,228 to 230
26,Cc1cc([N+](=O)[O-])c(NCC(O)CO)c([N+](=O)[O-])c1 (configuration not stated),118

row,Compound,melting point [°C]
1,CCCCNC(=O)c1c(N)cc(Cl)cc1Cl,92 to 98
2,c1cc(-c2ccc(N3CCNCC3)cc2)[nH]n1,290
3,CCCc1nn(CC)c2c(=O)[nH]c(C)nc12,211 to 213
4,Cc1ccnc2c1nc(-c1cccnc1N)n2-c1ccc(CC(=O)Nc2cccc(F)c2)cc1,241 to 243
5,COc1c(C(=O)NN=Cc2ccc(Cl)cc2)[nH]c2ccccc12,249 to 251
6,OC1CSC(Oc2ccc(-c3cncnc3)nc2Cl)C(O)C1O (configuration not stated),100
7,CCN1CC(=O)N(c2ccc(Cl)cc2Cl)C1=S,144 to 146
8,CC(=O)c1ccc(N)c2c1OCCO2,135 to 136
9,CC(=O)OCC1OC(OC(C)=O)C(N=[N+]=[N-])C([N+](=O)[O-])C1OC(C)=O (configuration not stated),118 to 120
10,O=C(/C=C/c1ccc(C(F)(F)F)cc1Br)Nc1ccc2ncsc2c1,214 to 215
11,O=C(O)C1=Cc2cc(Cl)c(Oc3ccc(C(=O)O)cc3Cl)cc2OC1C(F)(F)F (configuration not stated),> 300
12,CCN(CC)C(=O)C=Cc1ccc(-c2ccccc2)cc1,113
13,COC1CCN(CC=CC(=O)Nc2cc3c(Nc4ccc(F)c(Cl)c4)ncnc3cc2OCC2CC2)CC1,129 to 130
14,COc1cc(NS(C)(=O)=O)c(Oc2ccccc2)cc1C(C)=O,108 to 110
15,COc1ccccc1-n1c(=O)[nH]c2c(C(N)=O)nc(-c3ccc4cc[nH]c4c3)nc21,203 to 204
16,CCCN1CC(CO)CC2c3cccc4[nH]cc(c34)CC21 (configuration not stated),166 to 168
17,COc1cc(I)ccc1C(=O)O,144 to 146
18,O=C1N(Cc2ccc3nonc3c2)c2ccccc2C12COc1cc3c(cc12)OCCO3 (configuration not stated),164 to 166
19,O=C(c1ccc(O)cc1)c1c(-c2ccccc2)oc2ccc([N+](=O)[O-])cc12,207
20,Nc1ccc(C2CCNCC2)cc1,85 to 87
21,CCCCCCCCCC(CC)C(=O)Nc1cc(C(=O)O)ccc1C (racemic),217 to 220
22,CCCn1nc2c(N)nc3ccccc3c2c1CCN(C(N)=O)c1ccc(F)c(F)c1,211 to 212
23,CCCCCCCC(=O)N1CCc2nnc(NN)cc2C1,164 to 166
24,CCc1nc2cnc3cc(C=CC(=O)N(C)C)ccc3c2n1CC(C)(C)O,196 to 198
